# Results from ChEMBL document CHEMBL4613266, “Discovery and Structure Relationships of Salicylanilide Derivatives as Potent, Non-acidic P2X1 Receptor Antagonists” (J Med Chem, 2020).
# Columns and labels:
# [1] = target: T1, P2X purinoceptor 2 (Homo sapiens) (UniProt Q9UBL9); experiment: Antagonist activity at human P2X2 receptor expressed in human 1321N1 cells assessed as inhibition of ATP-induced cytosolic calcium influx at 10 uM preincubated for 30 mins followed by ATP addition by Fluo-4 AM dye-based fluorescence assay relative to control; assay type: cell-based
# T1 sequence (whole entry): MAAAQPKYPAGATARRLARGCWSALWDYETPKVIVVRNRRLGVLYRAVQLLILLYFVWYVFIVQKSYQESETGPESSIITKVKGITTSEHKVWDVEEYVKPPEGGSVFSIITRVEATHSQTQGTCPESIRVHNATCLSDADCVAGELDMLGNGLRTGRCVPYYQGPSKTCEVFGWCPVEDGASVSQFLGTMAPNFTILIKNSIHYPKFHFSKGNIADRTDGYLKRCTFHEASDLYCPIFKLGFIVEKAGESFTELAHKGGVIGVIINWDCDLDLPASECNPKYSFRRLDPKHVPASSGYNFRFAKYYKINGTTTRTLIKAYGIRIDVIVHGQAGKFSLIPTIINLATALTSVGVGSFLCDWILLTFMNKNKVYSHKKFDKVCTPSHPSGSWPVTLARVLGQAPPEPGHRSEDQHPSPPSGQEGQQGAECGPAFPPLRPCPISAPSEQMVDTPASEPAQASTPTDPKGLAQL
# P2X purinoceptor 7 = target: T2, P2X purinoceptor 7 (Homo sapiens, UniProt Q99572); experiment: Antagonist activity at human P2X7 receptor expressed in human 1321N1 cells assessed as inhibition of ATP-induced cytosolic calcium influx preincubated for 30 mins followed by ATP addition by Fluo-4 AM dye-based fluorescence assay; assay type: cell-based
# T2 sequence (Q99572 whole entry): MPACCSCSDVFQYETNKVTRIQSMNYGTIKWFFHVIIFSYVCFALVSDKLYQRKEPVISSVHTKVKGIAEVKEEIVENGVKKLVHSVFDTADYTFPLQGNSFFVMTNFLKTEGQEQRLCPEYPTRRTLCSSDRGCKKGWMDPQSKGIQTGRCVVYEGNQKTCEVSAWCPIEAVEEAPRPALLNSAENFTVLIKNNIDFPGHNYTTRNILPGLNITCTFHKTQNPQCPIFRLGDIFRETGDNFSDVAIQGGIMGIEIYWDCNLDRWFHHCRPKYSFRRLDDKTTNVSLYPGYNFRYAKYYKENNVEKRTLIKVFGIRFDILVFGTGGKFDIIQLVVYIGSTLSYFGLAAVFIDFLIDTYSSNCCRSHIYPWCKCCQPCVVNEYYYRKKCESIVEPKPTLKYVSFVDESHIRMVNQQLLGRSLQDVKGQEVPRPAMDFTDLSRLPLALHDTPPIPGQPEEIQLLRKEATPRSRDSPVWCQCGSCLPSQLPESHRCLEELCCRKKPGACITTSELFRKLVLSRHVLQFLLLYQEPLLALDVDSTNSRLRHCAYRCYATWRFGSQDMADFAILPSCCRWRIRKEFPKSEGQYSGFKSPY
# P2X purinoceptor 4 = target: T3, P2X purinoceptor 4 (Homo sapiens, UniProt Q99571); experiment: Antagonist activity at human P2X4 receptor expressed in human 1321N1 cells assessed as inhibition of ATP-induced cytosolic calcium influx preincubated for 30 mins followed by ATP addition by Fluo-4 AM dye-based fluorescence assay; assay type: cell-based
# T3 sequence (Q99571 whole entry): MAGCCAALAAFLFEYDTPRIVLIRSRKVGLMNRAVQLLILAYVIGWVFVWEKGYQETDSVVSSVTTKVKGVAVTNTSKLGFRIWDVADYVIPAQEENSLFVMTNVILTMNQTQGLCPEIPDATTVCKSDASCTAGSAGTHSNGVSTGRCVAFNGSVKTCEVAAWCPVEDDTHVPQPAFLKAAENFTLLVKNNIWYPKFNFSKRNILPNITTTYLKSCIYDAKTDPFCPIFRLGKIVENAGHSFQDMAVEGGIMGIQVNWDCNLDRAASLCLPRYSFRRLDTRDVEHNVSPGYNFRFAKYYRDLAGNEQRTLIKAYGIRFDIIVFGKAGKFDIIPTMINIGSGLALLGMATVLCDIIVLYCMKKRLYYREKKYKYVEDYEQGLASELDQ
# P2X purinoceptor 3 = target: T4, P2X purinoceptor 3 (Homo sapiens, UniProt P56373); experiment: Antagonist activity at human P2X3 receptor expressed in human 1321N1 cells assessed as inhibition of ATP-induced cytosolic calcium influx preincubated for 30 mins followed by ATP addition by Fluo-4 AM dye-based fluorescence assay; assay type: cell-based
# T4 sequence (P56373 whole entry): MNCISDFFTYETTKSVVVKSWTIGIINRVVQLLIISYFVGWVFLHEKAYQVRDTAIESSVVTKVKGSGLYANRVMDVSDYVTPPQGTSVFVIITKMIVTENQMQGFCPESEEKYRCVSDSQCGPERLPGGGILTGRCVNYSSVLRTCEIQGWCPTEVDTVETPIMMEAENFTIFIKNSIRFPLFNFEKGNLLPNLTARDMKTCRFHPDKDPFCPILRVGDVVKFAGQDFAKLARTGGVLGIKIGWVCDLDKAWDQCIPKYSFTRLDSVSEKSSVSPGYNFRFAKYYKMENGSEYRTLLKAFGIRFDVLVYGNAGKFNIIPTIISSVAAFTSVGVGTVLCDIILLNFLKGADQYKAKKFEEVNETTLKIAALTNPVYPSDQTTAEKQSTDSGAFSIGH
# [2] = target: T5, P2X purinoceptor 3 (Homo sapiens) (UniProt P56373); experiment: Antagonist activity at human P2X3 receptor expressed in human 1321N1 cells assessed as inhibition of ATP-induced cytosolic calcium influx at 10 uM preincubated for 30 mins followed by ATP addition by Fluo-4 AM dye-based fluorescence assay relative to control; assay type: cell-based
# T5 sequence (whole entry): T4 sequence (P56373 whole entry)
# P2X purinoceptor 2 = target: T6, P2X purinoceptor 2 (Homo sapiens, UniProt Q9UBL9); experiment: Antagonist activity at human P2X2 receptor expressed in human 1321N1 cells assessed as inhibition of ATP-induced cytosolic calcium influx preincubated for 30 mins followed by ATP addition by Fluo-4 AM dye-based fluorescence assay; assay type: cell-based
# T6 sequence (Q9UBL9 whole entry): T1 sequence (whole entry)
# [3] = target: T7, P2X purinoceptor 1 (Homo sapiens) (UniProt P51575); experiment: Antagonist activity at non-desensitizing human P2X1 receptor ( P2X2/P2X1 chimera) expressed in human 1321N1 cells assessed as inhibition of ATP-induced calcium influx at 10 uM pre-incubated for 30 mins before ATP stimulation by FLIPR assay relative to control; assay type: cell-based
# T7 sequence (whole entry): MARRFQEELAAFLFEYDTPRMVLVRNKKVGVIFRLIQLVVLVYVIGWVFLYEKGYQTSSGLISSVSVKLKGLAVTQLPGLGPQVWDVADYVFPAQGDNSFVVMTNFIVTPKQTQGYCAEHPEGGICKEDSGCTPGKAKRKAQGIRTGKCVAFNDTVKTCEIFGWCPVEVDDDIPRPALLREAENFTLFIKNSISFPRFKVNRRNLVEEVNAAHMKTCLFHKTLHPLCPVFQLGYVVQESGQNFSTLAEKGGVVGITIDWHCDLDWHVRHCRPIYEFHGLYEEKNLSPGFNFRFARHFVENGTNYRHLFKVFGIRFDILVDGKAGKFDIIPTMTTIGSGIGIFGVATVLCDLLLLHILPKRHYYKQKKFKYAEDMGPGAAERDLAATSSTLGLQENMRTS
# P2X purinoceptor 1 [4] = target: P2X purinoceptor 1 (Homo sapiens, UniProt P51575); experiment: Antagonist activity at non-desensitizing human P2X1 receptor ( P2X2/P2X1 chimera) expressed in human 1321N1 cells assessed as inhibition of ATP-induced calcium influx pre-incubated for 30 mins before ATP stimulation by FLIPR assay relative to control; assay type: cell-based
# P2X purinoceptor 1 [5] = target: T8, P2X purinoceptor 1 (Rattus norvegicus, UniProt P47824); experiment: Antagonist activity at rat P2X1 receptor
# T8 sequence (P47824 whole entry): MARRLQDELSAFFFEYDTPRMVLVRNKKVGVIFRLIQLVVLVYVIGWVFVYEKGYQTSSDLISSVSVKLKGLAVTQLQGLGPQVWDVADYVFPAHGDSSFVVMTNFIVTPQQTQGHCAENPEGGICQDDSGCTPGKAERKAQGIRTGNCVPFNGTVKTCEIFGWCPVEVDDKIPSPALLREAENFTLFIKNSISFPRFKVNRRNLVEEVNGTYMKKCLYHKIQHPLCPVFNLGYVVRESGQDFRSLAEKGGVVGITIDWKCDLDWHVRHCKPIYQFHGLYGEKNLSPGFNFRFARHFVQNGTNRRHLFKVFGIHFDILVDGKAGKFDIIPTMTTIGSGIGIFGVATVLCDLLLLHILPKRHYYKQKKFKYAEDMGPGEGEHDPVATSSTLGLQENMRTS
# [6] = target: T7, P2X purinoceptor 1 (Homo sapiens); experiment: Antagonist activity at non-desensitizing human P2X1 receptor ( P2X2/P2X1 chimera) expressed in human 1321N1 cells assessed as inhibition of ATP-induced calcium influx at 100 uM pre-incubated for 30 mins before ATP stimulation by FLIPR assay relative to control; assay type: cell-based
# [7] = target: T7, P2X purinoceptor 1 (Homo sapiens); experiment: Antagonist activity P2X1 receptor in Apyrase pre-treated human platelets assessed as inhibition of TRAP6-induced platelet aggregation pre-incubated for 30 mins before TRAP6 stimulation by aggregometry relative to control; assay type: cell-based
# [8] = target: T7, P2X purinoceptor 1 (Homo sapiens); experiment: Antagonist activity P2X1 receptor in human platelets assessed as inhibition of ADP-induced platelet aggregation pre-incubated for 30 mins before ADP stimulation by aggregometry relative to control; assay type: cell-based
# [9] = target: T7, P2X purinoceptor 1 (Homo sapiens); experiment: Antagonist activity P2X1 receptor in Apyrase pre-treated human platelets assessed as inhibition of collagen-induced platelet aggregation pre-incubated for 30 mins before collagen stimulation by aggregometry relative to control; assay type: cell-based
# [10] = target: T7, P2X purinoceptor 1 (Homo sapiens); experiment: Antagonist activity at non-desensitizing human P2X1 receptor ( P2X2/P2X1 chimera) expressed in human 1321N1 cells assessed as inhibition of ATP-induced calcium influx at 1 uM pre-incubated for 30 mins before ATP stimulation by FLIPR assay relative to control; assay type: cell-based
SMILES,inhibition [1],inhibition [2],inhibition [3],IC50 (P2X purinoceptor 1 [4]),inhibition [6],further results
O=C(Nc1cc(C(F)(F)F)cc(C(F)(F)F)c1)c1ccc(Cl)cc1O,-5%,2%,59%,0.0231 µM,–,IC50 (P2X purinoceptor 7): 0.196 µM; IC50 (P2X purinoceptor 4): 0.209 µM; IC50 (P2X purinoceptor 3): > 10 µM; IC50 (P2X purinoceptor 2): > 10 µM
Cc1nc(/N=N/c2ccc(S(=O)(=O)O)cc2S(=O)(=O)O)c(COP(=O)(O)O)c(C=O)c1O,–,–,–,–,–,IC50 (P2X purinoceptor 1 [5]): 1 µM
O=C(Nc1cc(C(F)(F)F)cc(C(F)(F)F)c1)N1CCCc2cccc(O)c21,–,–,–,10.4 µM,77%,–
O=S(=O)(Nc1cc(C(F)(F)F)cc(C(F)(F)F)c1)c1cc(Cl)ccc1O,–,–,80%,0.439 µM,–,inhibition [7]: 8%; inhibition [8]: 27%
O=C(Nc1ccc(Cl)c([N+](=O)[O-])c1)c1cc(Cl)ccc1O,–,–,–,13.5 µM,80%,–
O=C(Nc1cccc(Br)c1)c1ccccc1O,–,–,–,2.69 µM,98%,–
O=C(N[C@H](Cc1cscn1)C(=O)N[C@@H](CC1CCCCC1)[C@@H](O)[C@@H](O)C1CC1)c1nc2ccccc2[nH]1,–,–,100%,0.496 µM,–,IC50 (P2X purinoceptor 1 [5]): 3 µM
N#Cc1cccc(NC(=O)c2cc(Cl)ccc2O)c1,–,–,–,0.522 µM,–,inhibition [10]: 60%

# Continued, in another order:
inhibition [1],inhibition [2],SMILES,inhibition [3],IC50 (P2X purinoceptor 1 [4]),inhibition [6],further results
13%,28%,O=C(Nc1cc(C(F)(F)F)cc(C(F)(F)F)c1)c1cccc(Cl)c1O,83%,0.058 µM,–,IC50 (P2X purinoceptor 7): 0.177 µM; IC50 (P2X purinoceptor 4): 0.0488 µM; IC50 (P2X purinoceptor 3): > 10 µM; IC50 (P2X purinoceptor 2): > 10 µM
3%,-6%,O=C(Nc1ccc(C(F)(F)F)cc1)c1cc(Cl)ccc1O,53%,–,–,inhibition [7]: 6%; inhibition [9]: 7%; inhibition [8]: 23%
